Data: patent US4242261A, “Production of methylene-cycloamines” (A. H. Robins Company, Inc., priority 1979, dated 1980)
Where “and” joins values, the source holds several entries; their conditions need not be identical. Identical values can stand only once. Like-named read-outs stand apart in the source and are kept apart here.

Test system: Tetrabenazine-Induced Ptosis
Assay: Blockade of Tetrabenazine-Induced Ptosis in Mice (antidepressant activity)
Type: in vivo, mice (ICR-DUB strain)
Conditions: female mice; for ED50: Mus musculus
Protocol: Thirty minutes later the presence or absence of complete eyelid closure (ptosis) is assessed in each animal. For compounds which produced blockage of ptosis in all animals, and ED50 value is obtained using a minimum of three geometrically spaced dosages with five mice/dose.

[1] = IP, 30 min before tetrabenazine 32 mg/kg IP, test compounds in text, read-out: ED50 (confidence limits)
[2] = ip, read-out: ED50 (95% confidence limits), IP, 30 min before tetrabenazine 32 mg/kg IP, Table 1 reference agents, probit analysis

| Compound | ED50 [1] [mg/kg] | ED50 (95% confidence limits) (IP, 30 min before tetrabenazine 32 mg/kg IP, Table 1 reference agents, probit analysis) | ED50 [2] [mg/kg] |
| --- | --- | --- | --- |
| CC(C)N1CC(=C(c2ccccc2)c2ccccc2)C1.O=C(O)C(=O)O [1-isopropyl-3-diphenylmethyleneazetidine oxalate] | 2.18 | – | – |
| CN1CC(=C(c2ccccc2)c2ccccc2)C1 [1-methyl-3-diphenylmethyleneazetidine] | 1.48 | – | – |
| CN(C)CCCN1c2ccccc2CCc2ccccc21 [imipramine] | – | 0.4 (0.2-0.9) mg/kg and 0.5 (0.2-1.2) mg/kg | 0.3 |
| CCOc1ccccc1OCC1CNCCO1 (centres unmarked) [viloxazine] | – | – | 1.5 |
